Read-outs that look alike come from different tables or passages of the source.
Molecular target: Recombinant Btk (Homo sapiens (Human), UniProt Q06187)
Experiment: Btk kinase assay (TR-FRET)
[1] = read-out: IC50 (nM) Btk, 1 hour pre-incubation, ATP at Km

Chain of Recombinant Btk (Q06187 whole entry): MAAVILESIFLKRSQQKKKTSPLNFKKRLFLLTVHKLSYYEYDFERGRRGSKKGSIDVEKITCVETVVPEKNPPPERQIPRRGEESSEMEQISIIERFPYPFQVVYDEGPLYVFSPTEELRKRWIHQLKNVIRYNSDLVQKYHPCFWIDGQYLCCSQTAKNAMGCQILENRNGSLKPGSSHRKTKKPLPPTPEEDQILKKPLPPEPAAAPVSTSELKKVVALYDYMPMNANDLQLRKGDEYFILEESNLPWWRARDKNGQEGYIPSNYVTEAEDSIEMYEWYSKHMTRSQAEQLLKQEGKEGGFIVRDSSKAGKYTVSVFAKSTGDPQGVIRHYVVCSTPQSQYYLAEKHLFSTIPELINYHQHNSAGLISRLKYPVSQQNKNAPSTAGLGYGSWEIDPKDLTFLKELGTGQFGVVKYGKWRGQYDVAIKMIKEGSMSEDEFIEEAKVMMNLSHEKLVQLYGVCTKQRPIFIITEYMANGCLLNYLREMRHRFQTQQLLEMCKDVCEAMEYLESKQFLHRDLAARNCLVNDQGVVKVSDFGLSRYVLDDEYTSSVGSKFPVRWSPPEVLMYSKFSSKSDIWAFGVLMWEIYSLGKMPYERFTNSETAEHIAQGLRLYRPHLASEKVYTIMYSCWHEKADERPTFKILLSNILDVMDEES

Row | SMILES | IC50 [1] [nM] | other results
1 | NC(=O)c1c(-c2ccc(Oc3ccccc3)cc2)nn2c1NCCC2c1cccc(N)c1 (single isomer, unassigned) [Compound 2a, 7-(3-Aminophenyl)-2-(4-phenoxyphenyl)-4,5,6,7-tetrahydropyrazolo[1,5-a]pyrimidine-3-carboxamide] | – | IC50 (read-out: IC50 (nM) Btk, 1 hour pre-incubation, ATP at Km, listed as 2a (peak 1)): 270 nM
2 | NC(=O)c1c(-c2ccc(Oc3ccccc3)cc2)nn2c1NCCC2c1cccc(N)c1 (single isomer, unassigned) [Compound 2b, 7-(3-Aminophenyl)-2-(4-phenoxyphenyl)-4,5,6,7-tetrahydropyrazolo[1,5-a]pyrimidine-3-carboxamide] | – | IC50 (read-out: IC50 (nM) Btk, 1 hour pre-incubation, ATP at Km, listed as 2b (peak 2)): 210 nM
3 | C=CC(=O)Nc1ccccc1C1CCNc2c(C(N)=O)c(-c3ccc(F)c(F)c3)nn21 (stereo not shown) [Compound 137, 7-(2-acrylamidophenyl)-2-(3,4-difluorophenyl)-4,5,6,7-tetrahydropyrazolo[1,5-a]pyrimidine-3-carboxamide] | 3.7 | –
4 | C=CC(=O)Nc1ccccc1C1CCNc2c(C(N)=O)c(-c3ccc(OC)c(OC)c3)nn21 (stereo not shown) [Compound 168, 7-(2-Acrylamidophenyl)-2-(3,4-dimethoxyphenyl)-4,5,6,7-tetrahydropyrazolo[1,5-a]pyrimidine-3-carboxamide] | 3.7 | –
